Measured values as given in ChEMBL document CHEMBL1156106 (J Med Chem, 2009).

Experiments:
[1] = test system: Rattus norvegicus; experiment: Effect on behavioural activity in rat assessed as cocaine-induced lever response at 25 mg/kg, po pretreated with cocaine for 180 mins by drug-discrimination studies; type: functional
[2] = test system: Rattus norvegicus; experiment: Effect on behavioural activity in rat assessed as cocaine-induced lever response at 2.5 mg/kg, po pretreated with cocaine for 360 mins by drug-discrimination studies; type: functional
[3] = test system: Rattus norvegicus; experiment: Effect on behavioural activity in rat assessed as cocaine-induced lever response at 50 mg/kg, po pretreated with cocaine for 180 mins by drug-discrimination studies; type: functional
[4] = test system: Rattus norvegicus; experiment: Effect on behavioural activity in rat assessed as cocaine-induced lever response at 5 mg/kg, po pretreated with cocaine for 180 mins by drug-discrimination studies; type: functional
[5] = test system: Mus musculus; experiment: Antidepressant activity in ip dosed mouse assessed as stimulation of locomotor activity relative to cocaine; type: functional
[6] = test system: Mus musculus; experiment: Antidepressant activity in ip dosed mouse assessed as stimulation of locomotor activity; type: functional
[7] = test system: Rattus norvegicus; experiment: Effect on behavioural activity in rat assessed as cocaine-induced lever response at 5 mg/kg, po pretreated with cocaine for 45 mins by drug-discrimination studies; type: functional
[8] = test system: Rattus norvegicus; experiment: Effect on behavioural activity in rat assessed as cocaine-induced lever response at 25 mg/kg, po pretreated with cocaine for 90 mins by drug-discrimination studies; type: functional
[9] = test system: Mus musculus; experiment: Antidepressant activity in ip dosed mouse assessed as duration of locomotor activity; type: functional
[10] = test system: Rattus norvegicus; experiment: Effect on behavioural activity in rat assessed as cocaine-induced lever response at 10 mg/kg, po pretreated with cocaine for 45 mins by drug-discrimination studies; type: functional
[11] = test system: Rattus norvegicus; experiment: Effect on behavioural activity in rat assessed as cocaine-induced lever response at 10 mg/kg, po pretreated with cocaine for 360 mins by drug-discrimination studies; type: functional
[12] = test system: Rattus norvegicus; experiment: Effect on behavioural activity in rat assessed as cocaine-induced lever response at 5 mg/kg, po pretreated with cocaine for 90 mins by drug-discrimination studies; type: functional
[13] = test system: Mus musculus; experiment: Antidepressant activity in ip dosed mouse assessed as time to reach peak stimulation of locomotor activity; type: functional
[14] = test system: Rattus norvegicus; experiment: Effect on behavioural activity in rat assessed as cocaine-induced lever response at 5 mg/kg, ip pretreated with cocaine for 15 mins by drug-discrimination studies; type: functional; settings: route intraperitoneal
[15] = test system: Rattus norvegicus; experiment: Effect on behavioural activity in rat assessed as cocaine-induced lever response at 50 mg/kg, po pretreated with cocaine for 45 mins by drug-discrimination studies; type: functional
[16] = test system: Rattus norvegicus; experiment: Effect on behavioural activity in rat assessed as cocaine-induced lever response at 25 mg/kg, po pretreated with cocaine for 360 mins by drug-discrimination studies; type: functional
[17] = test system: Rattus norvegicus; experiment: Effect on behavioural activity in rat assessed as cocaine-induced lever response at 10 mg/kg, po pretreated with cocaine for 180 mins by drug-discrimination studies; type: functional
[18] = test system: Rattus norvegicus; experiment: Effect on behavioural activity in rat assessed as cocaine-induced lever response at 2.5 mg/kg, po pretreated with cocaine for 180 mins by drug-discrimination studies; type: functional
[19] = test system: Rattus norvegicus; experiment: Effect on behavioural activity in rat assessed as cocaine-induced lever response at 50 mg/kg, po pretreated with cocaine for 90 mins by drug-discrimination studies; type: functional
[20] = test system: Rattus norvegicus; experiment: Effect on behavioural activity in rat assessed as cocaine-induced lever response at 10 mg/kg, ip pretreated with cocaine for 15 mins by drug-discrimination studies; type: functional; settings: route intraperitoneal
[21] = test system: Rattus norvegicus; experiment: Effect on behavioural activity in ip dosed rat assessed as cocaine-induced lever response pretreated with cocaine by drug-discrimination studies; type: functional
[22] = test system: Rattus norvegicus; experiment: Effect on behavioural activity in rat assessed as cocaine-induced lever response at 25 mg/kg, po pretreated with cocaine for 45 mins by drug-discrimination studies; type: functional
[23] = test system: Rattus norvegicus; experiment: Effect on behavioural activity in po dosed rat assessed as cocaine-induced lever response pretreated with cocaine by drug-discrimination studies; type: functional
[24] = test system: Rattus norvegicus; experiment: Effect on behavioural activity in rat assessed as cocaine-induced lever response at 5 mg/kg, po pretreated with cocaine for 360 mins by drug-discrimination studies; type: functional
[25] = test system: Rattus norvegicus; experiment: Effect on behavioural activity in rat assessed as cocaine-induced lever response at 50 mg/kg, po pretreated with cocaine for 360 mins by drug-discrimination studies; type: functional
[26] = test system: Rattus norvegicus; experiment: Effect on behavioural activity in rat assessed as cocaine-induced lever response at 2.5 mg/kg, ip pretreated with cocaine for 15 mins by drug-discrimination studies; type: functional; settings: route intraperitoneal
[27] = target: Sodium-dependent serotonin transporter (Homo sapiens, UniProt P31645); experiment: biochemical; type: cell-based, HEK293
[28] = test system: Rattus norvegicus; experiment: Effect on behavioural activity in rat assessed as cocaine-induced lever response at 2.5 mg/kg, po pretreated with cocaine for 45 mins by drug-discrimination studies; type: functional
[29] = test system: Rattus norvegicus; experiment: Effect on behavioural activity in rat assessed as cocaine-induced lever response at 10 mg/kg, po pretreated with cocaine for 90 mins by drug-discrimination studies; type: functional
[30] = test system: Rattus norvegicus; experiment: Effect on behavioural activity in rat assessed as cocaine-induced lever response at 2.5 mg/kg, po pretreated with cocaine for 90 mins by drug-discrimination studies; type: functional
[31] = test system: Rattus norvegicus; experiment: Effect on behavioural activity in rat assessed as cocaine-induced lever response at 25 mg/kg, ip pretreated with cocaine for 15 mins by drug-discrimination studies; type: functional; settings: route intraperitoneal
[32] = target: Sodium-dependent dopamine transporter (Homo sapiens, UniProt Q01959); experiment: Displacement of [125I]RTI55 from cloned human DAT expressed in HEK293 cells; type: cell-based
[33] = target: Sodium-dependent noradrenaline transporter (Homo sapiens, UniProt P23975); experiment: Displacement of [125I]RTI55 from cloned human NET expressed in HEK293 cells; type: cell-based
[34] = test system: Rattus norvegicus; experiment: Effect on behavioural activity in rat assessed as cocaine-induced lever response at 100 mg/kg, po pretreated with cocaine for 90 mins by drug-discrimination studies; type: functional
[35] = test system: Rattus norvegicus; experiment: Effect on behavioural activity in rat assessed as cocaine-induced lever response at 100 mg/kg, po pretreated with cocaine for 45 mins by drug-discrimination studies; type: functional
[36] = test system: Rattus norvegicus; experiment: Effect on behavioural activity in rat assessed as cocaine-induced lever response at 100 mg/kg, po pretreated with cocaine for 180 mins by drug-discrimination studies; type: functional
[37] = test system: Rattus norvegicus; experiment: Effect on behavioural activity in rat assessed as cocaine-induced lever response at 100 mg/kg, po pretreated with cocaine for 360 mins by drug-discrimination studies; type: functional

Sodium-dependent dopamine transporter, sequence (Q01959 whole entry): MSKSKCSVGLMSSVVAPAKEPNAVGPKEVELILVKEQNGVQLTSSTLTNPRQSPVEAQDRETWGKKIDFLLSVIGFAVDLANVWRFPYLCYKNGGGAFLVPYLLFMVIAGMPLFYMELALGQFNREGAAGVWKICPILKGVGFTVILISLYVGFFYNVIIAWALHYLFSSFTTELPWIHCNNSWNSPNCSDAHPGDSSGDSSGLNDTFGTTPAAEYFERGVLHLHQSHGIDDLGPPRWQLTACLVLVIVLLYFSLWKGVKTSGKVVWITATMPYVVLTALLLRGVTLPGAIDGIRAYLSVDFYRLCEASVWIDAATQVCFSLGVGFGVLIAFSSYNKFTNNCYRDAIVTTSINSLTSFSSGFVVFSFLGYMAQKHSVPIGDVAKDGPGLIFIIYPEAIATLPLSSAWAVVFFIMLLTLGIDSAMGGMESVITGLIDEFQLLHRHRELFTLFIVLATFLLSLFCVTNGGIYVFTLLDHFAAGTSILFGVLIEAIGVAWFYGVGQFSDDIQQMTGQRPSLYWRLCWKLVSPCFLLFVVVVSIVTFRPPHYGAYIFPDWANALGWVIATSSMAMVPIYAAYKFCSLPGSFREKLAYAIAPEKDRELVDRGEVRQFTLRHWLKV
Sodium-dependent serotonin transporter, sequence (P31645 whole entry): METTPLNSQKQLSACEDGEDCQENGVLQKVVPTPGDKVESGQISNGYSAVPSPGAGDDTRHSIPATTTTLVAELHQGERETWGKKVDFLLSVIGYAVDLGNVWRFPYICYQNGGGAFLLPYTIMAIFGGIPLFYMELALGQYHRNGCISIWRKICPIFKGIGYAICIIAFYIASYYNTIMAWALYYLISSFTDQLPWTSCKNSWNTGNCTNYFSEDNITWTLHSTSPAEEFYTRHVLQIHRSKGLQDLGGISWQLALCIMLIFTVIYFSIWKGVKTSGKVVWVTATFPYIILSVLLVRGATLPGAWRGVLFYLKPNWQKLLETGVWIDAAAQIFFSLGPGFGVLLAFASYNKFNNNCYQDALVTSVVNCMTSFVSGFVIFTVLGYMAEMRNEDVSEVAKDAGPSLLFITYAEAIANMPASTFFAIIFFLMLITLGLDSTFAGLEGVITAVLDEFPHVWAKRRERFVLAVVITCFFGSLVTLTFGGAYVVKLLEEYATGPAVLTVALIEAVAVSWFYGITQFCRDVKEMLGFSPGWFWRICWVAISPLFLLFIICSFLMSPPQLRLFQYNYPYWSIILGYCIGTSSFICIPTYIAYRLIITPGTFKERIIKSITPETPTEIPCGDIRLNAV
Sodium-dependent noradrenaline transporter, sequence (P23975 whole entry): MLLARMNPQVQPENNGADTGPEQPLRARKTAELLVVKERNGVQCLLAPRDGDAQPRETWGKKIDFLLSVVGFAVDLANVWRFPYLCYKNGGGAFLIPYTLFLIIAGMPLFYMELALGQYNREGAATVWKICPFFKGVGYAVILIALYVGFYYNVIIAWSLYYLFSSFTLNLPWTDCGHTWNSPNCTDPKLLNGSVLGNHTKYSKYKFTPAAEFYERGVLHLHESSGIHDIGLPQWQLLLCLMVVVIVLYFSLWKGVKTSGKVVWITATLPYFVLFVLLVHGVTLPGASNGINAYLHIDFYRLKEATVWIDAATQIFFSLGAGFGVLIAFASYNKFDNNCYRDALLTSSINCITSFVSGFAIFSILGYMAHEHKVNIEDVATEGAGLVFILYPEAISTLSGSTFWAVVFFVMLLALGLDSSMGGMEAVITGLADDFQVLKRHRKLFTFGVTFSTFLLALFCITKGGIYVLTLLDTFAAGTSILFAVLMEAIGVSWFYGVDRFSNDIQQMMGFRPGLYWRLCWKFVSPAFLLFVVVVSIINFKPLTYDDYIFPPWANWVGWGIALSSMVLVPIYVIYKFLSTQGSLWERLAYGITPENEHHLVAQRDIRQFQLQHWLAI

CC(NC(C)(C)C)C(=O)c1ccccc1 (centres undefined)
Activity [1]: 20%
Activity [2]: 0%
Activity [3]: 50%
Activity [4]: 33%
Activity [5]: 95%
ED50 [6]: 11.2 mg/kg
Activity [7]: 0%
Activity [8]: 33%
Time [9]: 120 min
Activity [10]: 0%
Activity [11]: 0%
Activity [12]: 0%
Time to peak locomotor stimulation [13]: 0 min
Activity [14]: 32.8%
Activity [15]: 83%
Activity [16]: 34%
Activity [17]: 3%
Activity [18]: 0%
Activity [19]: 33%
Activity [20]: 83.3%
ED50 [21]: 1 mg/kg
Activity [22]: 51%
ED50 [23]: 25.2 mg/kg
Activity [24]: 0%
Activity [25]: 4%
Activity [26]: 16%
Ki [27]: > 10 µM
Activity [28]: 6%
Activity [29]: 0%
Activity [30]: 1%
Activity [31]: 83.4%

CCN(CC)C(C)C(=O)c1cccc(Cl)c1 (centres undefined)
Activity [5]: 90%
Time [9]: 130 min
Time to peak locomotor stimulation [13]: 20 min
Activity [14]: 16.7%
Activity [20]: 98.6%
ED50 [21]: 3.2 mg/kg
Activity [26]: 0%
Ki [27]: > 10 µM
Activity [31]: 74.8%

CCC(NC(C)(C)C)C(=O)c1cccc(Cl)c1 (centres undefined)
Activity [5]: 62%
ED50 [6]: 18.6 mg/kg
Time [9]: 360 min
Time to peak locomotor stimulation [13]: 0 min
Activity [14]: 33.4%
ED50 [21]: 12.2 mg/kg
Activity [26]: 0.6%
Activity [31]: 100%

CC(CNC(C)(C)C)C(=O)c1cccc(Cl)c1 (centres undefined)
Ki [32]: > 10 µM
Ki [27]: > 10 µM
Ki [33]: > 10 µM

CC(NC(C)(C)C)C(=O)c1cccs1 (centres undefined)
Ki [32]: > 10 µM
Ki [27]: > 10 µM
Ki [33]: > 10 µM

CC(C(=O)c1cccc(Cl)c1)N(C)C (centres undefined)
Activity [2]: 0%
Activity [4]: 0%
Activity [5]: 64%
ED50 [6]: 9.3 mg/kg
Activity [7]: 38%
Time [9]: 180 min
Activity [11]: 18%
Time to peak locomotor stimulation [13]: 90 min
Activity [14]: 83.3%
Activity [17]: 33%
Activity [18]: 33%
Activity [20]: 83.2%
ED50 [21]: 5.9 mg/kg
ED50 [23]: 5.3 mg/kg
Activity [24]: 0%
Activity [26]: 0%
Ki [27]: > 10 µM
Activity [28]: 19%
Activity [29]: 100%
Activity [30]: 0%
Activity [31]: 100%

CC(NC(C)(C)C)C(=O)c1cccc(F)c1 (centres undefined)
Activity [34]: 75%
Activity [1]: 0%
Activity [3]: 18%
Activity [4]: 0%
Activity [5]: 80%
ED50 [6]: 17.5 mg/kg
Activity [7]: 17%
Activity [8]: 16%
Time [9]: 150 min
Activity [10]: 17%
Activity [12]: 0%
Time to peak locomotor stimulation [13]: 0 min
Activity [35]: 95%
Activity [14]: 0%
Activity [15]: 67%
Activity [16]: 0%
Activity [17]: 33%
Activity [19]: 33%
Activity [20]: 50.2%
ED50 [21]: 11.6 mg/kg
Activity [36]: 83%
Activity [22]: 49%
ED50 [23]: 25.3 mg/kg
Activity [37]: 50%
Activity [24]: 0%
Activity [25]: 0%
Activity [26]: 17.6%
Ki [27]: > 10 µM
Activity [29]: 0%
Ki [33]: > 10 µM
Activity [31]: 100%

Cc1cccc(C(=O)C(C)NC(C)(C)C)c1 (centres undefined)
Activity [5]: 76%
Time [9]: 50 min
Time to peak locomotor stimulation [13]: 10 min
Ki [27]: > 10 µM
Ki [33]: > 10 µM

CCCNC(C)C(=O)c1cccc(Cl)c1 (centres undefined)
Ki [32]: > 10 µM
Ki [27]: > 10 µM
Ki [33]: > 10 µM
